Reference: patent US6417212B1, “Modulators of peroxisome proliferator activated receptors” (Eli Lilly & Company, priority 1999, dated 2002)

Columns and labels:
huPPARα [1] = molecular target: T1, huPPARα (Homo sapiens, UniProt Q07869); test: DNA-dependent binding (ABCD binding), SPA, huPPARα; conditions: displacement of tritium-labeled PPARα agonist radioligand
T1 sequence (Q07869 1-468): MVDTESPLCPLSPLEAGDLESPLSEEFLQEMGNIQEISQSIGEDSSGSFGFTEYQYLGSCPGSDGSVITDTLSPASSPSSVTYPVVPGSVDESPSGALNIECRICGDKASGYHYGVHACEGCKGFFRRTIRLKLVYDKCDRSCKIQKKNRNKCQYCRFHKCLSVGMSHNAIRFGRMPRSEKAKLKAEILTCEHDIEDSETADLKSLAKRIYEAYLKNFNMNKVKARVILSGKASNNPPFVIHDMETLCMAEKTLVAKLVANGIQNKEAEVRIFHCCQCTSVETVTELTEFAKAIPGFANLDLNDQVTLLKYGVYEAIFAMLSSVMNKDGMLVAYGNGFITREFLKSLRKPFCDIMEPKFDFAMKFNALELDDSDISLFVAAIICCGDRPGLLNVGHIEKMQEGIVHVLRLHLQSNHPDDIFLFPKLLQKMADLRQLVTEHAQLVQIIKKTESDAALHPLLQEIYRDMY
T1 sequence (P19793 1-462 partner): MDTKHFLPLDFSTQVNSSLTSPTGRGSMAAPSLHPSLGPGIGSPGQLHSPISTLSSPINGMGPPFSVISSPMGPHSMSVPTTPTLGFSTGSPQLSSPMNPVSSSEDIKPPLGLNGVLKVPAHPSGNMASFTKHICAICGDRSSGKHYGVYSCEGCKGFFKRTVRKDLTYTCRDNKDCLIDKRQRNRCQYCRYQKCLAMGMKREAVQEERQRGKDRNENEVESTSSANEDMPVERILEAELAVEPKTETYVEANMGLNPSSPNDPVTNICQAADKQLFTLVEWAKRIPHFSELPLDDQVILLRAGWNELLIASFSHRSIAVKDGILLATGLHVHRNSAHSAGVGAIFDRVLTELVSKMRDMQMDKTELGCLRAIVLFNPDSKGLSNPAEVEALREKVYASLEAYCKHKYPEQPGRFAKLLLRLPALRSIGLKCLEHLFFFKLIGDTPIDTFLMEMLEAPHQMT
Procedure: (§1) DNA-dependent binding (ABCD binding) was carried out using SPA technology with PPAR receptors. Tritium-labeled PPARγ and PPARα agonists were used as radioligands for generating displacement curves and IC50 values with compounds of the invention. Cotransfection assays were carried out in CV-1 cells. The reporter plasmid contained an acylCoA oxidase (AOX) PPRE and TK promoter upstream of the luciferase reporter cDNA. Appropriate PPARs and RXRα were constitutively expressed using plasmids containing the CMV promoter. […] In order to eliminate such interference, a GAL4 chimeric system was used in which the DNA binding domain of the transfected PPAR was replaced by that of GAL4, and the GAL4 response element was utilized in place of the AOX PPRE. Cotransfection efficacy was determined relative to PPARα agonist and PPARβ agonist reference molecules. Efficacies were determined by computer fit to a concentration-response curve, or in some cases at a single high concentration of agonist (10 μM). For binding or cotransfection studies with receptors other than PPARs, similar assays were carried out using appropriate ligands, receptors, reporter constructs, etc., for that particular receptor.
(§2) These studies were carried out to evaluate the ability of compounds of the invention to bind to and/or activate various nuclear transcription factors, particularly huPPARα (“hu” indicates “human”) and huPPARγ. These studies provide in vitro data concerning efficacy and selectivity of compounds of the invention. Furthermore, binding and cotransfection data for compounds of the invention were compared with corresponding data for marketed compounds that act on either huPPARα or huPPARγ.

huPPARα [2] = test: Cotransfection assay in CV-1 cells, huPPARα (GAL4 chimeric system); type: cell-based, human; conditions: luciferase reporter, relative to PPARα agonist reference molecule
Procedure: DNA-dependent binding (ABCD binding) was carried out using SPA technology with PPAR receptors. Tritium-labeled PPARγ and PPARα agonists were used as radioligands for generating displacement curves and IC50 values with compounds of the invention. Cotransfection assays were carried out in CV-1 cells. The reporter plasmid contained an acylCoA oxidase (AOX) PPRE and TK promoter upstream of the luciferase reporter cDNA. Appropriate PPARs and RXRα were constitutively expressed using plasmids containing the CMV promoter. For PPARα and PPARβ, interference by endogenous PPARγ in CV-1 cells was an issue. In order to eliminate such interference, a GAL4 chimeric system was used in which the DNA binding domain of the transfected PPAR was replaced by that of GAL4, and the GAL4 response element was utilized in place of the AOX PPRE. Cotransfection efficacy was determined relative to PPARα agonist and […] reference molecules. Efficacies were determined by computer fit to a concentration-response curve, or in some cases at a single high concentration of agonist (10 μM). For binding or cotransfection studies with receptors other than PPARs, similar assays were carried out using appropriate ligands, receptors, reporter constructs, etc., for that particular receptor.
as §2

huPPARγ [3] = molecular target: T2, huPPARγ (Homo sapiens, UniProt P37231); test: Cotransfection assay in CV-1 cells, huPPARγ; type: cell-based; parameters: expressed in transfected cells; host or cells: CV-1 cells; conditions: AOX PPRE luciferase reporter, relative to agonist reference molecule; for Emax: read-out: huPPARγ CTF Efficacy
T2 sequence (P37231 1-505): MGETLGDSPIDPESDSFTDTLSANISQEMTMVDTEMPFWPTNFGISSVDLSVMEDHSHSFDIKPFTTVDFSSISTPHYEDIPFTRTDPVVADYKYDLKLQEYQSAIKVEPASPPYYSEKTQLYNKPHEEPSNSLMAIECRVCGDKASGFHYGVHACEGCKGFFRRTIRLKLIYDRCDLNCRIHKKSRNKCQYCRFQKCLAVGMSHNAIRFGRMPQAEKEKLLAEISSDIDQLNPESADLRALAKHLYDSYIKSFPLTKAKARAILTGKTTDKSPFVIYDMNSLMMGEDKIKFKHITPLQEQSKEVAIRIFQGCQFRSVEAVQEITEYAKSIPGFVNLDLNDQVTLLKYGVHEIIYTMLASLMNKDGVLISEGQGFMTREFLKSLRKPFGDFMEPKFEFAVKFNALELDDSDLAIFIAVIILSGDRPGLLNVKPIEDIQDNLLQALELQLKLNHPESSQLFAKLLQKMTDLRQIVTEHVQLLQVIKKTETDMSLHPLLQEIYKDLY
T2 sequence (P19793 1-462 partner): T1 sequence (P19793 1-462 partner)
Procedure: as §1, with “Tritium-labeled PPARγ and PPARα agonists were used as radioligands for generating displacement curves and IC50 values with compounds of the invention.” left out, “Cotransfection efficacy was determined relative to PPARα agonist and PPARβ agonist reference molecules.” left out
as §2

huPPARγ [4] = molecular target: T2, huPPARγ; test: DNA-dependent binding (ABCD binding), SPA, huPPARγ; conditions: displacement of tritium-labeled PPARγ agonist radioligand
Procedure: as §1, §2

| IC50 (huPPARα [1]) | Emax (huPPARγ [3]) | IC50 (huPPARγ [4]) | huPPARγ CTF Efficacy (huPPARγ [3]) | SMILES | huPPARα CTF Efficacy (huPPARα [2]) |
| --- | --- | --- | --- | --- | --- |
| 350 nM | 80% | 1060 nM |  | COc1ccccc1-c1ccc(-c2nc(CCOc3ccc(OC(C)(C)C(=O)O)cc3)c(C)o2)cc1 [Example 10, 2-(4-{2-[2-(2′-Methoxy-biphenyl-4-yl)-5-methyloxazol-4-yl]-ethoxy}-phenoxy)-2-methylpropionic acid] | 111% |
| 475 nM | 100% | 928 nM |  | Cc1oc(-c2ccc(-c3ccccc3F)cc2)nc1CCOc1ccc(OC(C)(C)C(=O)O)cc1 [Example 13, 2-(4-{2-[2-(2′-Fluorobiphenyl-4-yl)-5-methyloxazol-4-yl]-ethoxy}-phenoxy)-2-methylpropionic acid] | 84% |
| 539 nM | 145% | 1790 nM |  | Cc1oc(-c2ccc(-c3ccc[nH]3)cc2)nc1CCOc1ccc(OC(C)(C)C(=O)O)cc1 [Example 18, 2-Methyl-2-[4-(2-{5-methyl-2-[4-(1H-pyrrol-2-yl)-phenyl]-oxazol-4-yl}-ethoxy)-phenoxy]propionic acid] | 97% |
| 125 nM | 71% | 81 nM |  | Cc1oc(-c2ccc(-c3ccccc3)cc2)nc1CCOc1ccc(OC(C)(C)C(=O)O)c(CC2CCCCC2)c1 [Example 25, 2-{4-[2-(2-Biphenyl-4-yl-5-methyloxazol-4-yl)-ethoxy]-2-cyclohexylmethyl-phenoxy}-2-methyl-propionic acid] | 104% |
| 78 nM | 73% | 33 nM |  | Cc1oc(-c2cccc(-c3ccccc3)c2)nc1CCOc1ccc(OC(C)(C)C(=O)O)c(CC2CCCCC2)c1 [Example 26, 2-{4-[2-(2-Biphenyl-3-yl-5-methyloxazol-4-yl)-ethoxy]-2-cyclohexylmethyl-phenoxy}-2-methyl-propionic acid] | 111% |
| 172 nM | 63% | 140 nM |  | Cc1oc(-c2ccc(-c3ccccc3)cc2)nc1CCOc1ccc(OC(C)(C)C(=O)O)c(CCc2ccccc2)c1 [Example 28, 2-{4-[2-(2-Biphenyl-4-yl-5-methyloxazol-4-yl)ethoxy]-2-phenethylphenoxy}-2-methylpropionic acid] | 93% |
| 47 nM | 60% | 12 nM |  | CCCCc1cc(OC(C)(C)C(=O)O)ccc1OCCc1nc(-c2cccc(-c3ccccc3)c2)oc1C [Example 32, 2-{4-[2-(2-Biphenyl-3-yl-5-methyloxazol-4-yl)ethoxy]-3-butylphenoxy}-2-methylpropionic acid] | 91% |
| 193 nM | 55% | 227 nM |  | Cc1oc(-c2ccc(-c3ccccc3)cc2)nc1CCOc1ccc(OC(C)(C)C(=O)O)cc1CC1CCCCC1 [Example 34, 2-{4-[2-(2-Biphenyl-4-yl-5-methyloxazol-4-yl)ethoxy]-3-cyclohexylmethylphenoxy}-2-methylpropionic acid] | 180% |
| 65 nM | 61% | 24 nM |  | Cc1oc(-c2cccc(-c3ccccc3)c2)nc1CCOc1ccc(OC(C)(C)C(=O)O)c(Cc2ccccc2)c1 [Example 35, 2-{2-Benzyl-4-[2-(2-biphenyl-3-yl-5-methyloxazol-4-yl)-ethoxy]-phenoxy}-2-methyl-propionic acid] | 90% |
| 140 nM | 92% | 62 nM |  | Cc1oc(-c2ccc(-c3ccccc3)cc2)nc1CCOc1ccc(OC(C)(C)C(=O)O)c(Cc2ccccc2)c1 [Example 36, 2-{2-Benzyl-4-[2-(2-biphenyl-4-yl-5-methyloxazol-4-yl)-ethoxy]-phenoxy}-2-methyl-propionic acid] | 140% |
| 371 nM | 126% | 1530 nM |  | Cc1oc(-c2ccc(-c3ccccc3)cc2)nc1CCSc1ccc(OC(C)(C)C(=O)O)cc1 [Example 47, 2-{4-[2-(2-Biphenyl-4-yl-5-methyloxazol-4-yl)-ethylsulfanyl]-phenoxy}-2-methyl-propionic acid] | 90% |
|  |  |  | 0% | CC(C)(Oc1ccc(C(=O)c2ccc(Cl)cc2)cc1)C(=O)O [Fenofibric acid, reference compound] | 16% |
